Test results: BindingDB's records for doi:10.1021/acs.jmedchem.9b01033 (Taipei Medical University, 2020)

Assay: Inhibition of CFD in 10% human serum assessed as reduction in alternate complement pathway-mediated hemolysis incubated for 1 hr

C[C@H](NC(=O)[C@@H]1C[C@H]2C[C@H]2N1C(=O)Cn1nc(C(N)=O)c2cccnc21)c1cccc(Cl)c1F
IC50: 6 nM
